# Values joined by “and” are separate entries in the source; they are usually repeats but may differ in a detail not shown here. Equal values may be shown once.
# Key:
# [1] = system: NADH levels in mitochondria; test: Real-time detection of mitochondrial NADH when respiratory chain complexes are inhibited; format: cell-based; details: for fluorescence (ex 485, em 528) of the sensor in mitochondria: treated for 30 min
# Procedure: NADH that produced via glycolysis pathway and tricarboxylic acid cycle pathway will be oxidized by the oxidative phosphorylation pathway of mitochondrial respiratory chain, and then generate ATP to provide energy for various life activities. Fluorescent sensors for nicotinamide adenine dinucleotide were used to measure changes of NADH levels in mitochondria when various complexes in the respiratory chain were inhibited. […] Time interval between the figures was 1 min. The cells were observed before and after treatment under a laser scanning confocal microscope (Nikon, Japan). […].
# [2] = system: 293FT cells; test: Real-time measurement of intracellular NADH after adding external NADH to the culture medium; format: cell-based
# Excerpt: As described in Example 7, the fluorescence sensors for reduced nicotinamide adenine dinucleotide were expressed in different subcellular organelles of 293FT cells. […] Following the addition of external NADH into cell culture medium, transfected cells were observed under a laser scanning confocal microscope (Nikon, Japan). […] As to the control group in comparison, the cpYFP presented alone was not affected by extra NADH either. Therefore, effects of pH and the variation in cpYFP per se by environmental changes could be excluded. This series of sensors were further utilized to detect influences of extra NADH on other organelles, and observed that extra NADH could also increase the NADH levels in nucleus and mitochondria, the results for nucleus study are shown in FIG. 8-1B, and those for mitochondria study are shown in FIG. 8-1C.
# [3] = system: NADH levels in different subcellular compartments; test: Real-time measurement of NADH levels regulated by glucose, pyruvate and lactate; format: cell-based
# Excerpt: Glycolysis is an important pathway of producing NADH and it plays a vital role in regulating intracellular NADH levels. The nicotinamide adenine dinucleotide fluorescent sensors were used to test how several important metabolites in this pathway, glucose, pyruvate and lactate, would influence the NADH levels in different subcellular compartments. […] As products of glycolysis pathway, pyruvate and lactate are presented in the cytoplasm with a dynamic balance between them. At increased intracellular levels of pyruvate, lactate dehydrogenase consumes NADH and produces lactate and NAD^+, and in turn, leads to the decrease of NADH levels in cytoplasm. At increased intracellular levels of lactate, lactate dehydrogenase consumes NAD^+ and produces pyruvate and NADH, and in turn, leads to the increase of NADH levels in cytoplasm.
# [4] = Spectral characteristics of fluorescent sensors (excitation and emission spectra); format: physicochemical; details: 10 μM sensor in 100 mM KPi, pH7.4
# Procedure: The fluorescent sensors that prepared above were dissolved in assay buffer (100 mM KPi, pH7.4) to formulate fluorescent sensor solutions to a final concentration of 10 μM. Then their absorption spectra were measured using a Multi-functional Fluorescence Microplate Reader (Synergy2, Biotek) (FIG. 3A).
# Their excitation and emission spectra were determined using a fluorescence spectrophotometer (Cary Eclipse Fluorescence spectrophotometer, Varian) (FIG. 3B).
# [5] = system: H1299 tumor cells; test: In vivo imaging of NADH metabolism in H1299-superFrex tumors; parameters: species or system nude mice; details: 300 μl sodium pyruvate (100 mM) via the tail vein
# Procedure: H1299 tumor cells were transfected with pcDNA3.1-cyt-superFrex, and then screened under Hygromycin B for 2 weeks. […] Male nude mice of 5-6 weeks old were subcutaneously injected with 200 μl of H1299-superFrex cell suspension (1.0×10^7 cells) into their right armpits and housed for 3-4 weeks at SPF Animal facility, tumors in the nude mice grew to 0.6-1.0 cm. The nude mice were anaesthetized and then injected with 300 μl of sodium pyruvate (100 mM) via the tail vein. Effects of the agent on tumor metabolism were observed immediately with Kodak multifunctional vivo imaging system (Carestream, USA). […] Over time, pyruvate was gradually consumed metabolically, and the ratio of NADH/NAD^+ in tumor cells resumed the initial level (FIG. 12-C). In summary, superFrex, the fluorescent sensor for reduced/oxidized nicotinamide adenine dinucleotide ratio, works well in real-time monitoring of the NADH metabolism in tumor tissues.
compound,measurement,setting,value
O=C(O)CC[N+](=O)[O-] [3-NP],NADH levels in mitochondria,"[1]; NADH sensor expressed in mitochondria, 6-minute profile",greatly decline
"NC(=O)C1=CN([C@@H]2O[C@H](COP(=O)(O)OP(=O)(O)OC[C@H]3O[C@@H](n4cnc5c(N)ncnc54)[C@H](O)[C@@H]3O)[C@@H](O)[C@H]2O)C=CC1 [NADH, reduced nicotinamide adenine dinucleotide]",intracellular NADH levels,[2]; external NADH added to medium,immediate increase
same,NADH levels in nucleus and mitochondria,[2]; extra NADH,increase
CC(O)C(=O)O (stereo not drawn) [lactate],NADH levels in cytoplasm,[3],rapid increase
C=C(C)[C@H]1Cc2c(ccc3c2O[C@@H]2COc4cc(OC)c(OC)cc4[C@@H]2C3=O)O1 [rotenone],"fluorescence (ex 485, em 528) of the sensor in mitochondria",[1],increased
"F-rex2: sensor from pRSETb-ydiH(189)-YFP-ydiH(190), Thermus aquaticus YdiH with cpYFP inserted, SEQ ID NO: 8",emission peak,[4],518 nm
same,excitation peaks,[4],410 nm and 500 nm
same,intensity of the latter excitation peak relative to the former,[4],about half
antimycin A,"fluorescence (ex 485, em 528) of the sensor in mitochondria",[1],increased
"cpYFP: circular permutation yellow fluorescent protein, control protein, SEQ ID NO: 22",effect of extra NADH on control protein presented alone,[2]; 293FT cells,not affected
same,"control tumor cells expressing cpYFP, change caused by pyruvate",[5],no difference
same,control protein expressed in mitochondria upon 3-NP treatment,[1]; 6-minute profile,no obvious change

# Reference: patent US9945860B2, “Nicotinamide adenine dinucleotide indicators, methods of preparation and application thereof” (East China University of Science and Technology, priority 2011, dated 2018)
